Each structure is given as a SMILES string.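 Briefly, cells in 96-well plates were exposed to five compound concentrations for 48 h, and endpoints were estimated by linear interpolation. GI50: concentration for 50% inhibition of growth. TGI: concentration producing complete growth inhibition.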

Among the test systems are HCT-15 colon; HOP-62 NSCLC; LOX IMVI melanoma; NCI/ADR-RES ovarian; OVCAR-4 ovarian; RPMI-8226 leukemia; SF-295 CNS; SK-MEL-2 melanoma; SK-MEL-28 melanoma; SN12C renal.
Test in all cases: NCI-60 cell line screen, 48 h

`CC(=O)Oc1ccc(C(c2ccc(OC(C)=O)cc2)c2ccccn2)cc1`: the GI50 in the assay on HCT-15 colon was 31.8 µM; with HOP-62 NSCLC, above 58.3 µM; in the assay on LOX IMVI melanoma, 52.7 µM; in the assay with NCI/ADR-RES ovarian, 0.908 µM; in the assay with OVCAR-4 ovarian it was 0.287 µM; in the assay on RPMI-8226 leukemia, 30.3 µM. Also, the GI50 with SF-295 CNS was 37.1 µM; in the assay with SK-MEL-2 melanoma it was 43.1 µM; in the assay with SK-MEL-28 melanoma it was 61.5 µM; in the assay on SN12C renal, 0.558 µM. Moreover, the TGI with HCT-15 colon was above 100 µM; with HOP-62 NSCLC it was above 100 µM; with LOX IMVI melanoma it was above 100 µM; in the assay on NCI/ADR-RES ovarian, above 100 µM; with OVCAR-4 ovarian, 4.42 µM; in the assay on RPMI-8226 leukemia, above 100 µM. Also, the TGI in the assay on SF-295 CNS, in the assay on SK-MEL-2 melanoma, in the assay with SK-MEL-28 melanoma and with SN12C renal was above 100 µM in each case.
